Assay results as given in PubChem BioAssay (NCI).
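Cells were grown in 96-well plates and exposed to each compound for 48 hours at five concentrations; endpoints were interpolated linearly between bracketing concentrations, or set to the highest concentration if not reached. Here, GI50 denotes the concentration required for 50% inhibition of growth. At the TGI there is no net growth.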

What was measured:
Experiment in all cases: growth of human tumour cells (NCI), 48 h
A498 renal = tested on: A498 renal
HCC-2998 colon = tested on: HCC-2998 colon
HCT-15 colon = tested on: HCT-15 colon
HL-60(TB) leukemia = tested on: HL-60(TB) leukemia
IGROV1 ovarian = tested on: IGROV1 ovarian
NCI-H226 lung = tested on: NCI-H226 lung
SK-MEL-2 melanoma = tested on: SK-MEL-2 melanoma
U251 CNS = tested on: U251 CNS
SF-268 CNS = tested on: SF-268 CNS
SN12C renal = tested on: SN12C renal

SMILES	TGI (A498 renal) [µM]	TGI (HCC-2998 colon) [µM]	TGI (HCT-15 colon) [µM]	TGI (HL-60(TB) leukemia) [µM]	TGI (IGROV1 ovarian) [µM]	TGI (NCI-H226 lung) [µM]	TGI (SK-MEL-2 melanoma) [µM]	TGI (U251 CNS) [µM]	GI50 (A498 renal) [µM]	GI50 (HCC-2998 colon) [µM]	GI50 (HCT-15 colon) [µM]	GI50 (HL-60(TB) leukemia) [µM]	GI50 (IGROV1 ovarian) [µM]	GI50 (NCI-H226 lung) [µM]	GI50 (SF-268 CNS) [µM]	TGI (SF-268 CNS) [µM]	GI50 (SK-MEL-2 melanoma) [µM]	GI50 (SN12C renal) [µM]	TGI (SN12C renal) [µM]	GI50 (U251 CNS) [µM]
COc1ccc2c(c1)CC[C@@H]1[C@@H]2CC[C@]2(C)C(=O)/C(=C/c3ccc(O)c(OC)c3)C[C@@H]12	> 100	75.5	72.6	> 100	> 100	> 100	> 100	> 100	–	–	–	–	–	–	–	–	–	–	–	–
COc1ccc2nc3ccccc3c(NCc3ccc(C)cc3)c2c1	3.05	3.26	4.76	4.58	6.34	5.12	3.68	3.69	1.65	1.73	1.73	2.03	2.19	1.97	2.27	5.44	1.85	1.64	3.78	1.84
C[C@]12CCC(=O)C=C1CC[C@@H]1[C@@H]2[C@@H](O)C[C@@]2(C)[C@H]1CC[C@]2(O)C(=O)COC(=O)C1CCCC1	> 100	> 100	> 100	> 100	> 100	> 100	> 100	> 100	–	–	–	–	–	–	–	> 100	–	–	> 100	–
C[N+](C)(CCO)CCN1c2ccccc2Sc2ccccc21	> 10	> 10	> 10	> 10	> 10	> 10	> 10	> 10	–	–	–	–	–	–	–	> 10	–	–	> 10	–
Cc1ccc(SSCCCCCS(=O)O)cc1	52	> 100	–	55.8	–	–	59.2	25.7	–	–	–	–	–	–	–	36.1	–	–	49	–
Nc1nc(=O)n(CC(O)CO)s1 (centres undefined)	> 100	> 100	> 100	> 100	> 100	> 100	> 100	> 100	–	–	–	–	–	–	–	> 100	–	–	> 100	–
O=C(COc1ccc(Cl)cc1Cl)N/N=C/C=C/c1ccc([N+](=O)[O-])o1	> 100	–	> 100	> 100	6.79	> 100	> 100	> 100	–	–	–	–	–	–	–	> 100	–	–	> 100	–
Cn1c(=O)c2c(nc(NCCNc3nc4c(c(=O)n(C)c(=O)n4C)n3C)n2C)n(C)c1=O	> 100	> 100	> 100	–	> 100	> 100	> 100	> 100	–	–	–	–	–	–	–	> 100	–	–	> 100	–
O=C(NNC(=O)c1nsc2ccccc12)c1ccc(Cl)cc1	–	31	36.4	49.8	> 100	–	45.7	33.7	–	–	–	–	–	–	–	41.3	–	–	33.7	–
COc1ccc(C2C(C=O)C(N3CCN(C)CC3)=Nc3nc4ccccc4n32)cc1 (centres undefined)	29.1	33.9	46.5	18.4	31.7	38.2	31.2	39.3	–	–	–	–	–	–	–	51.6	–	–	40.9	–
Fc1c(F)c(C(F)(F)F)c(F)c(F)c1N/N=C/c1cn(Cc2ccccc2)c2ccccc12	88.6	–	> 100	52.6	> 100	–	55.7	> 100	–	–	–	–	–	–	–	> 100	–	–	92	–
N#C[S-].[Ce+3].c1cnc2c(c1)ccc1cccnc12.c1cnc2c(c1)ccc1cccnc12.c1cnc2c(c1)ccc1cccnc12	14.5	18.9	–	48.3	> 100	8.24	–	12.6	–	–	–	–	–	–	–	–	–	–	13.1	–
O=S(O)c1cc(Cl)cc(Cl)c1OCc1ccccc1	> 100	> 100	–	> 100	–	–	> 100	> 100	–	–	–	–	–	–	–	> 100	–	–	> 100	–
CC(=O)C1=C(O)CCC1=O	–	> 100	–	> 100	> 100	> 100	> 100	> 100	–	–	–	–	–	–	–	> 100	–	–	> 100	–
NC(CC(=O)O)(Cc1ccccc1)C(=O)O (centres undefined)	> 100	–	> 100	> 100	> 100	> 100	> 100	> 100	–	–	–	–	–	–	–	–	–	–	> 100	–
CNC(=O)Nc1ccccc1	> 100	> 100	> 100	> 100	> 100	> 100	> 100	> 100	–	–	–	–	–	–	–	> 100	–	–	> 100	–
